These are literature values, as cited in patent publication US20160081937A1, “TABLET WITH INCREASED DRUG LOAD OF ODANACATIB” (SANDOZ AG, priority 2013, published 2016).

Molecules are shown by their SMILES.

For data set [1] the following is noted: crystalline odanacatib.
For data set [2] the following is noted: in vivo.

Turning to `CC(C)(F)C[C@H](N[C@@H](c1ccc(-c2ccc(S(C)(=O)=O)cc2)cc1)C(F)(F)F)C(=O)NC1(C#N)CC1` [Odanacatib, odanacatib], in data set [1], the aqueous solubility result was “low”. In addition, the oral bioavailability result in data set [2] was “highly dependable on vehicle, dosage and sample preparation”. Also, the “lumbar spine, hip and femoral neck BMD” value (patients treated once weekly with 20-50 mg) was “increases”. Moreover, the “BMD at the same sites (lumbar spine, hip, femoral neck)” value (patients treated with low doses) is given as “decreases”.
